Molecules are shown by their SMILES.

Data set [1] can be described thus: acute toxicity (LD50) by intraperitoneal administration in mice. To be noted: mouse, in vivo, ip, mice (male, 20 g). On the procedure:
On the other hand, LD50 values for N^2 -dansyl-N-butyl-L-argininamide and N^2 -dansyl-N-methyl-N-butyl-L-argininamide are 75 and 70 milligrams per kilogram, respectively. The therapeutic agents of this invention may be administered to mammals including humans, alone or in combination with pharmaceutically acceptable carriers, the proportion of which is determined by the solubility and chemical nature of the compound, chosen route of administration and standard pharmaceutical practice. For example, the compounds may be injected parenterally, that is, intramuscularly, intravenously or subcutaneously. For parenteral administration, the compounds may be used in the form of sterile solutions containing other solutes, for example, sufficient saline or glucose to make the solution isotonic. The compounds may be administered orally in the form of tablets, capsules, or granules containing suitable excipients such as starch, lactose, white sugar and the like. The compounds may be administered sublingually in the form of troches or lozenges in which each active ingredient is mixed with sugar or corn syrups, flavoring agents and dyes, and then dehydrated sufficiently to make the mixture suitable for pressing into solid form. The compounds may be administered orally in the form of solutions which may contain coloring and flavoring agents.

Data set [2] deals with T1, thrombin (Bos taurus, UniProt P00735).
T1 construct: clotting of bovine fibrinogen
Kind of data set: fibrinogen coagulation time. Format: biochemical. To be noted: bovine fibrinogen, thrombin 5 units/ml, borate saline buffer pH 7.4, 25° C; normal coagulation time 50-55 seconds to 100-110 seconds; read-out: Concentration required to prolong the coagulation time by a factor of two. As for the experimental part:
The measurement of the fibrinogen coagulation time was conducted as follows:
Immediately after mixing, the reaction mixture was transferred from the ice bath to a bath maintained at 25° C. Coagulation times were taken as the period between the time of transference to the 25° C bath and the time of the first appearance of fibrin threads.
The term "concentration required to prolong the coagulation time by a factor of two" is the concentration of an active ingredient required to prolong the normal coagulation time 50-55 seconds to 100-110 seconds.

In the case of `COc1cc2ccc(S(=O)(=O)N[C@@H](CCCNC(=N)N)C(=O)N3CCCCC3C(=O)O)cc2cc1OC` (stereo partly drawn) [Sample 2, 1-[N^2-(6,7-dimethoxy-2-naphthylsulfonyl)-L-arginyl]-2-piperidinecarboxylic acid], the LD50 in data set [1] turned out to be 1500 mg/kg.
On to `COc1ccc2cc(S(=O)(=O)N[C@@H](CCCNC(=N)N)C(=O)N3CCCCC3C(=O)O)ccc2c1` (stereo partly drawn) [Sample 4, 1-[N^2-(6-methoxy-2-naphthylsulfonyl)-L-arginyl]-2-piperidinecarboxylic acid], for which, in data set [2], the IC (2-fold clotting time) is 3 µM.
On the same count and under the same terms, for `COc1cc2ccc(S(=O)(=O)N[C@@H](CCCNC(=N)N)C(=O)N3CCC(C)CC3C(=O)O)cc2cc1OC` (stereo partly drawn) [Sample 5, 1-[N^2-(6,7-dimethoxy-2-naphthylsulfonyl)-L-arginyl]-4-methyl-2-piperidinecarboxylic acid] the value was 0.4 µM.
As for `CCOC(=O)C1CC(C)CCN1C(=O)[C@H](CCCNC(=N)N)NS(=O)(=O)c1ccc2ccc(OC)cc2c1` (stereo partly drawn) [Sample 6, Ethyl 1-[N^2-(7-methoxy-2-naphthylsulfonyl)-L-arginyl]-4-methyl-2-piperidinecarboxylate], the median lethal dose (LD50) in data set [1] lay within 670 to 1000 mg/kg.
For `COc1ccc2ccc(S(=O)(=O)N[C@@H](CCCNC(=N)N)C(=O)N3CCC(C)CC3C(=O)O)cc2c1` (stereo partly drawn) [Sample 7, 1-[N^2-(7-methoxy-2-naphthylsulfonyl)-L-arginyl]-4-methyl-2-piperidinecarboxylicacid], the IC (2-fold clotting time) in data set [2] was 0.15 µM.
Consider `COc1ccc2cc(S(=O)(=O)N[C@@H](CCCNC(=N)N)C(=O)N3CCC(C)CC3C(=O)O)cc(OC)c2c1` (stereo partly drawn) [Sample 11, 1-[N^2-(4,6-dimethoxy-2-naphthylsulfonyl)-L-arginyl]-4-methyl-2-piperidinecarboxylic acid], for which the IC (2-fold clotting time) in data set [2] turned out to be 0.35 µM. For the same compound, the LD50 in data set [1] was in the range of 670 to 1000 mg/kg.
As for `CCCC1CCN(C(=O)[C@H](CCCNC(=N)N)NS(=O)(=O)c2ccc3cc(OC)c(OC)cc3c2)C(C(=O)O)C1` (stereo partly drawn) [Sample 19, 1-[N^2-(6,7-dimethoxy-2-naphthylsulfonyl)-L-arginyl]-4-propyl-2-piperidinecarboxylic acid], the IC (2-fold clotting time) in data set [2] was 0.5 µM.
For the compound `COc1cc2ccc(S(=O)(=O)N[C@@H](CCCNC(=N)N)C(=O)N3CCC(c4ccccc4)CC3C(=O)O)cc2cc1OC` (stereo partly drawn) [Sample 30, 1-[N^2-(6,7-dimethoxy-2-naphthylsulfonyl)-L-arginyl]-4-phenyl-2-piperidinecarboxylic acid], in data set [2], the IC (2-fold clotting time) was 12 µM.

As usually defined, the LD50 is the dose at which mortality reaches 50%.

(Values after patent US4072757A, “N^2 alkoxynaphthylsulfonyl-L-argininamides and the pharmaceutically acceptable salts thereof” (Mitsubishi Chemical Industries Limited, priority 1974, dated 1978).)
